Measurements reported in article PMC7972453, “The allosteric modulation of complement C5 by knob domain peptides” (eLife, 2021).
Bridges are numbered along the chain shown (N, C = ends). Where no end group is shown, it is not given here.

Legend:
[1] = tested on: classical pathway mediated C5a release (complement C5); test: Inhibition of classical pathway mediated C5a release (ELISA); assay type: biochemical, human; settings: n=3 (K8: n=5), ND* = Not detected
Protocol: For the C5b ELISA, assays were run using the CP and AP Complement functional ELISA kits (Svar Life Science, Malmö, Sweden). For sample preparation, serum was diluted as per the respective protocol for the CP and AP assays. Serial dilutions of peptides were prepared and allowed to incubate with serum for 15 min at room temperature prior to plating.
For the C5a ELISA, assays were run using the Complement C5a Human ELISA Kit (Invitrogen, Renfrew, UK). For sample preparation, at the end of the 37°C incubation of the serum/peptide samples on the C5b ELISA plate, 50 µL of the diluted, activated serum was transferred to a C5a ELISA plate containing 50 µL/well of assay buffer. All subsequent experimental steps were performed as described in the protocol.
Table 1.3. Inhibition of classical pathway mediated C5a release.
Data from n=3 independent titrations, unless otherwise stated

[2] = tested on: sheep erythrocytes (classical pathway haemolysis); test: Inhibition of classical pathway haemolysis; assay type: cell-based, sheep erythrocytes; normal human serum; settings: 1% serum
Protocol: GVB^++ or Mg EGTA buffers, which had been supplemented with 2.5% glucose (w/v), were used for the CP and AP assays, respectively. For the AP, 150 µL of rabbit erythrocytes (TCS Biosciences, Botolph Claydon, UK) were washed twice, by addition of 1 mL of buffer and centrifugation at 800 ×g for 1 min, and finally resuspended in 500 µL of buffer. For the CP, 150 µL sheep erythrocytes (TCS Biosciences, Botolph Claydon, UK) were washed twice with 1 mL of buffer and sensitised with a 1/1000 dilution of rabbit anti-sheep red blood cell stroma antibody (S1389, Sigma Aldrich, Gillingham, UK). After a 30°C/30 min incubation, with shaking, the cells were rewashed and resuspended with 500 µL of buffer. Serial dilutions of peptide were prepared in the respective buffers and normal human serum was added at 1% for the CP and 4.5% for the AP (corresponding to CH50 of the serum). Also, 90 µL of peptide–serum mixtures were plated into a V-bottom 96-well microtiter plate (Corning) and 10 µL of erythrocytes were added. Plates were incubated for 30 min at 37°C, with shaking. Finally, 50 µL of buffer was added, the plates centrifuged at 800 ×g, and 80 µL of supernatant was transferred to an ELISA plate (Nunc) and absorbance measured at 405 nm.
Table 1.7. Inhibition of classical pathway haemolysis.

[3] = biological target: T1, human C5b (Homo sapiens, UniProt P01031); test: SPR single-cycle kinetics, binding to C5b
T1 construct: Upon cleavage of C5a, the remaining domains of the α-chain undergo a substantial conformational change; C5a was removed using a spin column with 30 kDa cut-off; tissue TCS Biosciences (serum); host or cells: human serum; C5 cleaved in house with CVF, factor B and factor D
Protocol: Human C5 was affinity purified using an E141A, H164A OmCI column ([Macpherson et al., 2018]). Briefly, human serum (TCS Biosciences, Botolph Claydon, UK) was diluted 1:1 (v/v) with phosphate buffered saline (PBS), 20 mM ethylenediaminetetraacetic acid (EDTA), and applied to a 5 mL Hi-Trap NHS column (GE Healthcare, Amersham UK), which contained 20 mg of E141A H164A OmCI protein, at a rate of 1 mL/min. The column was washed with 5× column volumes (CV) of PBS, C5 was then eluted using 2 M MgCl2 and immediately dialysed into PBS. C5b was prepared from human C5 by incubating C5 with CVF, factor B and factor D, at a 1:10 molar ratio, as previously described ([Jore et al., 2016]). C5a was removed using a spin column with 30 kDa cut-off (Thermo Fisher Scientific, Horsham, UK).
On a Biacore 8K (GE Healthcare, Amersham, UK), human C5b was immobilised on a CM5 chip (GE Healthcare, Amersham, UK). Flow cells were activated using a standard immobilisation protocol: EDC/NHS was mixed at 1:1 ratio (flow rate, 10 µL/min; contact time, 30 s). C5b, at 1 µg/mL, or C5b-6 (Complement Technologies, Tyler, TX), at 2 µg/mL, in pH 4.5 sodium acetate buffer, were immobilised on flow cell two only (flow rate, 10 µL/min; contact time, 420 s). Finally, ethanolamine was applied to both flow cells (flow rate, 10 µL/min; contact time, 420 s). A final immobilisation level of 500–700 RUs was obtained for C5b and 1000–1150 RUs were obtained for C5b-6. Single-cycle kinetics were measured using a seven-point, threefold serial dilution (spanning a range of 1 µM to 1.4 nM) in HBS-EP buffer (GE Healthcare, Amersham, UK). A high flow rate of 40 µL/min was used, with a contact time of 300 s and a dissociation time of 2700 s. Binding to the reference surface was subtracted, and the data were fitted to a single-site binding model using Biacore evaluation software. All sensorgrams were inspected for evidence of mass transport limitation using the flow rate-independent component of the mass transfer constant (tc).
Table 4.1. SPR single-cycle kinetics of knob domains binding to human C5b.

T1 sequence (P01031 752-1676 limits assumed): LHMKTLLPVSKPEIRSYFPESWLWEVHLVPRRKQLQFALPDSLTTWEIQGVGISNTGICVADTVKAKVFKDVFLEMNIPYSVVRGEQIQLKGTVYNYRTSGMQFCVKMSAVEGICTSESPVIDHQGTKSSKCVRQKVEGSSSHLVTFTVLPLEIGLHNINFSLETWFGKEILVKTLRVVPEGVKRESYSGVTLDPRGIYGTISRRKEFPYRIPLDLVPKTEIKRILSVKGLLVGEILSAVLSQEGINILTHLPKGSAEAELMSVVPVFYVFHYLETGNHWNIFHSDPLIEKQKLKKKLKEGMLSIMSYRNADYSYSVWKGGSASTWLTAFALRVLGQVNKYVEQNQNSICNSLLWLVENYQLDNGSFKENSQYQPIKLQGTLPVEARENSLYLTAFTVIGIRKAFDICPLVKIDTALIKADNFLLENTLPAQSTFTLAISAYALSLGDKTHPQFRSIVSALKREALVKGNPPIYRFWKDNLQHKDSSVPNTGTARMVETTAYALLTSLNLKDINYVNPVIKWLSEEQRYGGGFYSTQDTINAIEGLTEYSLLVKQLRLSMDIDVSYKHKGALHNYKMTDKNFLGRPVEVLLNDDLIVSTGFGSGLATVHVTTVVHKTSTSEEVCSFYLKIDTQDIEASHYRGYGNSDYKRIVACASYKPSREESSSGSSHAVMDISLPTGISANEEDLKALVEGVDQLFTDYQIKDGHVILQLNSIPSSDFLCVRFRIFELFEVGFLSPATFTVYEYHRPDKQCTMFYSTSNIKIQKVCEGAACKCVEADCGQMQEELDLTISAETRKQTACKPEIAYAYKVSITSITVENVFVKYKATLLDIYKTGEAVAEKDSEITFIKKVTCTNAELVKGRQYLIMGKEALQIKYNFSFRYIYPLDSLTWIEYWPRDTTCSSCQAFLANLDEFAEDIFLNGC
T1 sequence (P01031 19-673 limits assumed): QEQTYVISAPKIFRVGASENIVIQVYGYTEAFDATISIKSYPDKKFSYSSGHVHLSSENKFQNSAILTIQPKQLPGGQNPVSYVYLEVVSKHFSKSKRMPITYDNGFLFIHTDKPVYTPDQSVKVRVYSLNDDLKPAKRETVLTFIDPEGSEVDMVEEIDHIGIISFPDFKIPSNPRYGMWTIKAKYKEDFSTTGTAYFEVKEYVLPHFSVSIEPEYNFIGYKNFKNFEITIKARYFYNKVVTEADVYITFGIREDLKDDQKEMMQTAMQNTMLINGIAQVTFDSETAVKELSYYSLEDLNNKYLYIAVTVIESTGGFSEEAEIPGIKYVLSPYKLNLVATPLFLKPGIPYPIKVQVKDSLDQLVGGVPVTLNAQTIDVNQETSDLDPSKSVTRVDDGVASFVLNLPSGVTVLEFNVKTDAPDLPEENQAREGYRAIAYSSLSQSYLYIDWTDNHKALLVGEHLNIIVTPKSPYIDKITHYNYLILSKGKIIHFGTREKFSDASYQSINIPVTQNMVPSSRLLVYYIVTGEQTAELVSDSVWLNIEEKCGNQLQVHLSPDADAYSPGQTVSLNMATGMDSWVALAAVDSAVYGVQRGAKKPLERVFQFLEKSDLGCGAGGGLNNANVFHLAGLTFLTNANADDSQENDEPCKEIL

For “SVCPDGFDWGYGCAAGSSRFCTRHDWCCYDERADSHTYGFCTGNRVENLYFQ (disulfide 3-28, 13-21, 27-41) [K8]”, the “Average Emax” value ([1]; CP C5a release) was 57.7%, the IC50 ([1]; CP, C5a Human ELISA kit (Invitrogen) on activated serum from C5b ELISA plate, read-out: Geomean IC50) was 9.9 nM and the “Average Emax” value ([2]; CP haemolysis, n=3, ND* = Not detected) was 95.6%. The “inhibition of CP haemolysis (in words)” value ([2]; sheep erythrocytes) was “efficacious in the CP assay”, the “binding to C5b (in words)” value ([3]; SPR single-cycle kinetics) was “did not bind C5b” and the Stoichiometric ratio ([3]; replicate n=1) was 0.1. For the same sequence, the “comment (binding)” value ([3]; replicate n=1) was “Non-binding”, the Stoichiometric ratio ([3]; replicate n=2) was 0.1 and the “comment (binding)” value ([3]; replicate n=2) was “Non-binding”. The Stoichiometric ratio ([3]; replicate n=3) was 0.2, the “comment (binding)” value ([3]; replicate n=3) was “Non-binding” and the Mean stoichiometric ratio ([3]; summary of n=3) was 0.1. For the same sequence, the “comment (binding)” value ([3]; summary of n=3) was “Non-binding”.
